Measurements: ChEMBL document CHEMBL4699521, “Design and synthesis of 4-Aminoquinoline-isoindoline-dione-isoniazid triads as potential anti-mycobacterials” (Bioorg Med Chem Lett, 2020)
In brackets after ≈: the same amount, converted by molar mass.

What was measured:
[1] = target: T1, Enoyl-[acyl-carrier-protein] reductase [NADH] (Mycobacterium tuberculosis) (UniProt P9WGR1); experiment: Inhibition of Mycobacterium tuberculosis mc2 6230 InhA assessed as antimycobacterial activity by measuring minimum inhibitory concentration required to inhibit 99% of bacterial growth
T1 sequence (whole entry): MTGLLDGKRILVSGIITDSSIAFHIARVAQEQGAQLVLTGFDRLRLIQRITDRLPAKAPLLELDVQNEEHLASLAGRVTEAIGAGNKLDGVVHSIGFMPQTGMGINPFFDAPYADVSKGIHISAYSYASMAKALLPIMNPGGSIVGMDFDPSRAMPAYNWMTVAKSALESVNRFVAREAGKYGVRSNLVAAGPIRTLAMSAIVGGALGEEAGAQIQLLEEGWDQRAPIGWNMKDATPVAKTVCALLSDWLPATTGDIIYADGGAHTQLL

Vero [2] = experiment: Cytotoxicity against African green monkey Vero cells; type: cell-based; conditions: Chlorocebus sabaeus
[3] = Selectivity index, ratio of IC50 for African green monkey Vero cells to MIC99 for Mycobacterium tuberculosis mc2 6230; type: toxicity; conditions: read-out: Selectivity Index
[4] = test system: Mycobacterium tuberculosis; experiment: Antimycobacterial activity against Mycobacterium tuberculosis H37Rv assessed as reduction in bacterial cell growth; type: functional
[5] = test system: Mycobacterium tuberculosis; experiment: Antitubercular activity against Mycobacterium tuberculosis H37Rv assessed as reduction in bacterial cell growth measured after 7 days by alamar blue assay; type: functional; conditions: 168 h, time 7 day
[6] = test system: Mycobacterium tuberculosis; experiment: Antitubercular activity against Mycobacterium tuberculosis mc2 6230 assessed as minimum inhibitory concentration required to inhibit 99% of bacterial growth incubated for 7 days by two-fold serial dilution method; type: functional; conditions: mc2 6230, 168 h, time 7 day
Vero [7] = experiment: Cytotoxicity against African green monkey Vero cells assessed as reduction in cell viability measured after 24 hrs by resazurin assay; type: cell-based; conditions: Chlorocebus sabaeus
[8] = test system: Mycobacterium tuberculosis; experiment: Antitubercular activity against Mycobacterium tuberculosis mc2 6230 assessed as minimum inhibitory concentration required to inhibit 99% of bacterial growth; type: functional
[9] = test system: Mycobacterium tuberculosis; experiment: Antitubercular activity against Mycobacterium tuberculosis mc2 6230 assessed as minimum inhibitory concentration required to inhibit 99% of bacterial growth measured after 2 to 3 weeks; type: functional; conditions: time weeks 2-3

| Structure (SMILES) | MIC99 [1] | IC50 (Vero [2]) | selectivity ratio [3] | also measured |
| --- | --- | --- | --- | --- |
| O=C(O)c1ccc2c(c1)C(=O)N(CCCCCCNc1ccnc3cc(Cl)ccc13)C2=O | 222 µM (≈ 100 µg/mL) | 24.3 µM | 0.11 | – |
| O=C(O)c1ccc2c(c1)C(=O)N(CCCCCCCCNc1ccnc3cc(Cl)ccc13)C2=O | 417 µM (≈ 200 µg/mL) | > 209 µM | > 0.5 | – |
| NNC(=O)c1ccncc1 | 0.07 µM (≈ 0.0096 µg/mL) | – | – | – |
| O=C(NNC(=O)c1ccc2c(c1)C(=O)N(CCCCCCCCNc1ccnc3cc(Cl)ccc13)C2=O)c1ccncc1 | 5.1 µM (≈ 3.06 µg/mL) | 129 µM | 25 | – |
| O=C(NN1C(=O)c2c(F)c(F)c(F)c(F)c2C1=O)c1ccncc1 | – | – | – | MIC [4]: 3.4 µM (≈ 1.15 µg/mL) |
| O=C(NCCCCCCNc1ccnc2cc(Cl)ccc12)c1ccc2c(c1)C(=O)N(NC(=O)c1ccncc1)C2=O | 11 µM (≈ 6.28 µg/mL) | 33.3 µM | 3 | – |
| O=C(O)c1ccc2c(c1)C(=O)N(CCCCNc1ccnc3cc(Cl)ccc13)C2=O | 236 µM (≈ 100 µg/mL) | 40.1 µM | 0.16 | – |
| O=C(NCCCCNc1ccnc2cc(Cl)ccc12)c1ccc2c(c1)C(=O)N(NC(=O)c1ccncc1)C2=O | 23 µM (≈ 12.5 µg/mL) | 14.7 µM | 0.6 | – |
| O=C(Cn1cc(CN2C(=O)c3ccccc3C2=O)nn1)Nc1ccc(Br)cc1 | – | – | – | MIC [5]: 28.4 µM (≈ 12.5 µg/mL) |
| O=C1c2ccc(N3CCCCC3)cc2C(=O)N1CCCCNc1ccnc2cc(Cl)ccc12 | – | – | – | MIC [6]: 13.5 µM (≈ 6.25 µg/mL); IC50 (Vero [7]): > 216 µM |
| O=C(NCCCNc1ccnc2cc(Cl)ccc12)c1ccc2c(c1)C(=O)N(NC(=O)c1ccncc1)C2=O | 5.8 µM (≈ 3.07 µg/mL) | 161 µM | 27 | – |
| O=C(NNC(=O)c1ccc(N2C(=O)c3ccccc3C2=O)cc1)c1ccncc1 | 129 µM (≈ 50 µg/mL) | > 259 µM | > 2 | – |
| O=C(NNC(=O)c1ccc2c(c1)C(=O)N(CCNc1ccnc3cc(Cl)ccc13)C2=O)c1ccncc1 | 389 µM (≈ 200 µg/mL) | > 194 µM | > 0.5 | – |
| O=C1c2ccccc2C(=O)N1CCCCCCCCNc1ccnc2cc(Cl)ccc12 | – | 11.4 µM | – | MIC [8]: 13.5 µM (≈ 5.89 µg/mL) |
| O=C(O)c1ccc2c(c1)C(=O)N(CCCNc1ccnc3cc(Cl)ccc13)C2=O | 489 µM (≈ 200 µg/mL) | 242 µM | 0.5 | – |
| O=C(NN1C(=O)c2cccc3cccc(c23)C1=O)c1ccncc1 | – | – | – | MIC [8]: > 631 µM |
| O=C(NNC(=O)c1ccc2c(c1)C(=O)N(CCCCNc1ccnc3cc(Cl)ccc13)C2=O)c1ccncc1 | 23 µM (≈ 12.5 µg/mL) | 16.6 µM | 0.7 | – |
| O=C(NN1C(=O)c2ccc(C(=O)OCCNc3ccnc4cc(Cl)ccc34)cc2C1=O)c1ccncc1 | > 388 µM | > 194 µM | > 0.5 | – |
| O=C(NCCCCCCCCNc1ccnc2cc(Cl)ccc12)c1ccc2c(c1)C(=O)N(NC(=O)c1ccncc1)C2=O | 5.1 µM (≈ 3.06 µg/mL) | > 167 µM | > 32.7 | – |
| O=C1C(=O)N(CCCN2CCN(c3ccnc4cc(Cl)ccc34)CC2)c2ccc(F)cc21 | – | – | – | MIC [9]: < 10.1 µM |
| O=C(CN1C(=O)c2ccccc2C1=O)NNC(=O)c1ccncc1 | 308 µM (≈ 100 µg/mL) | > 308 µM | > 1 | – |
| O=C(NN1C(=O)c2ccc(N3CCN(c4ccnc5cc(Cl)ccc45)CC3)cc2C1=O)c1ccncc1 | 6 µM (≈ 3.08 µg/mL) | > 195 µM | > 32.5 | – |
| O=C(NCCNc1ccnc2cc(Cl)ccc12)c1ccc2c(c1)C(=O)N(NC(=O)c1ccncc1)C2=O | 6 µM (≈ 3.09 µg/mL) | 64.1 µM | 10.6 | – |
| O=C(CN1C(=O)c2ccc(F)cc2C1=O)NCCNc1ccnc2cc(Cl)ccc12 | – | – | – | MIC [6]: 14.6 µM (≈ 6.23 µg/mL); IC50 (Vero [7]): > 235 µM |
| O=C(NNC(=O)c1ccc2c(c1)C(=O)N(CCCCCCNc1ccnc3cc(Cl)ccc13)C2=O)c1ccncc1 | 21.9 µM (≈ 12.5 µg/mL) | 128 µM | 5.8 | – |
| O=C(NN1C(=O)c2ccc(C(=O)OCCCNc3ccnc4cc(Cl)ccc34)cc2C1=O)c1ccncc1 | 11.9 µM (≈ 6.31 µg/mL) | > 194 µM | > 16 | – |
| O=C(O)c1ccc2c(c1)C(=O)N(CCNc1ccnc3cc(Cl)ccc13)C2=O | > 506 µM | > 253 µM | > 0.5 | – |
| Cc1ccc(N2C(=O)C(NC(=O)CCNc3ccnc4cc(Cl)ccc34)[C@@H]2/C=C/c2ccccc2)cc1 (some centres not stated) | – | – | – | MIC [9]: 9.8 µM (≈ 5.01 µg/mL) |
| O=C(NNC(=O)c1ccc2c(c1)C(=O)N(CCCNc1ccnc3cc(Cl)ccc13)C2=O)c1ccncc1 | 47.3 µM (≈ 25 µg/mL) | 119 µM | 2.5 | – |
